Measurements as given in ChEMBL document CHEMBL1121958, “A consideration for structure-taste correlations of perillartines using pattern-recognition techniques” (J Med Chem, 1982).
Blank lines part the entries; values can stand above or below the molecule they belong to.

Assay: Partition coefficient (logP)
Assay type: physicochemical
Conditions: octanol/water

SMILES: O/N=C/C1=CC=CCC1
logP: 1.48

SMILES: O/N=C/C1=CCSCC1
logP: 0.34

SMILES: COCC1CCC=C(/C=N/O)C1 (configuration not stated)
logP: 0.8

SMILES: COC(C)(CO)C1CC=C(/C=N/O)CC1 (configuration not stated)
logP: -0.1

SMILES: C/C=C(C)/C=N/O
logP: 0.87

SMILES: C=CC1CC=C(/C=N/O)CC1 (configuration not stated)
logP: 2.28

SMILES: O/N=C/C1=CCCCC1
logP: 1.48

SMILES: O/N=C/C1=CCOCC1
logP: -0.72

SMILES: O/N=C/C1=CC2C=CC1CC2 (configuration not stated)
logP: 1.9

SMILES: COCC(C)(O)C1CC=C(/C=N/O)CC1 (configuration not stated)
logP: -0.1

SMILES: COCC(C)(OC)C1CC=C(/C=N/O)CC1 (configuration not stated)
logP: 0.72

SMILES: C=C(C)C1CC=C(/C=N/O)CC1 (configuration not stated)
logP: 2.58

SMILES: CC(O)(CO)C1CC=C(/C=N/O)CC1 (configuration not stated)
logP: -0.92

SMILES: O/N=C/C1=CCCOC1
logP: -0.72

SMILES: COCC1CC=C(/C=N/O)CC1 (configuration not stated)
logP: 1.1

Other lines, results leading:

logP: 1.1
SMILES: COC(C)C1=CCC=C(/C=N/O)C1 (configuration not stated)

logP: 1.4
SMILES: COC(C)C1CCC=C(/C=N/O)C1 (configuration not stated)

logP: 0.78
SMILES: CC1=CC=C(/C=N/O)CC1

logP: 0.8
SMILES: COCC1=CCC(/C=N/O)=CC1

logP: 1.4
SMILES: COC(C)C1CC=C(/C=N/O)CC1 (configuration not stated)

logP: 1.1
SMILES: COC(C)C1=CCC(/C=N/O)=CC1 (configuration not stated)

logP: 1.1
SMILES: COC(C)C1=CC=C(/C=N/O)CC1 (configuration not stated)
